In patent publication US11028078B2 (The Johns Hopkins University, priority 2011, dated 2021):

Legend:
[1] = test system: HUVEC; experiment: HUVEC proliferation assay ([3H]thymidine incorporation); format: cell-based, human; conditions: HUVEC; for Proliferation (IC50/IC50 Itra): IC50 of analog relative to IC50 of itraconazole
Experimental: The activity of the analogs against HUVEC proliferation, an in vitro proxy for angiogenesis inhibition (Table 3) was analyzed. […]
Pooled HUVEC (Lonza) were grown in EGM-2 bullet kit media (Lonza) and used at passage eight or lower. The proliferation assays were conducted as previously described (Nacev, B.; Low, W. K.; Huang, Z.; Su, T.; Su, Z.; Alkuraya, H.; Kasuga, D.; Sun, W.; Trager, M.; Braun, M.; Fischer, G.; Zhang, K.; Liu, J. O., Acalcineurin-independent mechanism of angiogenesis inhibition by anon-immunosuppressive Cyclosporin Aanalog. J. Pharmacol. Exp. Ther. 2011, DOI:10.1124/jpet.111.18085).

[2] = test system: VEGFR2; experiment: VEGFR2 glycosylation in HUVEC (Western blot scoring); format: cell-based, human; conditions: VEGFR2 hypoglycosylation score in HUVEC, 2 μM, 24 h
Experimental: VEGFR2 hypoglycosylation was scored either robust (++), intermediate (+), or absent (−) (FIG. 6).
HUVEC were seeded at 5×10^4 per well of a 6-well plate in 3 mL of media. After an overnight recovery, the media was replaced with 2 mL fresh media and the analogs were added from 200× stocks in DMSO. Following a 24-h incubation, the media was aspirated and 2×SDS sample buffer was added to the cells which were incubated on ice for 10 min and then boiled for 10 min. […] Following three washes in TBS-T, the membrane was incubated with anti-rabbit horseradish peroxidase conjugated IgG (GE Healthcare) (1:5000-1:10000 dilution) in 1% BSA in TBS-T. The membranes were washed three times in TBS-T, incubated for 1-5 minutes with ECL substrate (Immobilon Wester, Milipore) and visualized (Kodak Image Staion 440 CF).

[3] = test system: MB cultures derived from Ptch−/+; p53−/− mice; experiment: Medulloblastoma (MB) proliferation assay; format: cell-based, mouse; conditions: mouse medulloblastoma cultures, 96 h; relative to itraconazole
Excerpt: These cultures were derived from Ptch^−/+; p53^−/− mice that spontaneously develop medulloblastoma associated with ligand independent Hh pathway activation.
MB cultures were derived from mouse Ptch^−/+; p53^−/− MB grown as hind-flank allografts in nude mice (Harlan). Briefly, tumors were mechanically disrupted and made into single cell suspensions by two passages through a 70 μm nylon filter. Cells were pelleted by centrifugation and resuspended in PBS pH 7.4 twice. The cell suspension was then subjected to centrifugation at 1000×g for 25 min over a ficoll gradient. The viable cell layer formed at the ficoll boundary was then collected, suspended in PBS, and pelleted by centrifugation. The resulting pellet was then suspended and cultured as “neurospheres” in Neurobasal Media-A supplemented with retinoic acid deficient B-27 extract (NBMedia). Cells were cultured for three passages, with neurospheres disaggregated using Accumax (Innovative Cell Technologies) between passages.
Cultured MB neurospheres were disaggregated as described and 1×10^4 cells were seeded into wells of a 96-well assay plate in NBMedia and exposed to multiple analogue concentrations: Relative cell numbers following a 96-h incubation were quantified by CellTiter 96® AQueous One Solution Cell Proliferation Assay (Promega) per manufacturer's recommendations using a SpectraMax M2e spectrophotometer and SoftMax Pro software (Molecular Devices). Data was analyzed using Prism5 (GraphPad Software) and IC50 and IC90 values were determined from dose-response curves fitted to mean corrected absorbance normalized to control treatment.

[4] = test system: Gli1 transcript; experiment: Quantification of Gli1 transcript by TaqMan analysis in MB cells (Hh pathway); format: cell-based, mouse; conditions: Gli1 transcript fold induction score; MB cells exposed 24 h at the IC90 for MB proliferation
Excerpt: Inhibitors of the Hh pathway are known to inhibit MB cell proliferation. However, MB cell proliferation is also affected by drugs with targets other than Hh signaling.
Following drug exposure, cells were washed in PBS and pelleted by centrifugation at 300×g. Cell pellets were lysed in Trizol reagent (Invitrogen). Total RNA was separated and collected in the aqueous phase following centrifugation of lysate in the presence of chloroform. Total RNA was ethanol precipitated and purified over RNeasy Mini Kit (Qiagen) filter columns per manufacturer's recommendations. Transcript levels were quantified using gene-specific TaqMan primer/probe sets and the StepOne Plus Real-Time PCR system (Applied Biosystems) on cDNA reverse transcribed using the QuantiTect Reverse Transcription Kit (Qiagen) per manufacturers' recommendations. Results were quantified using StepOne Plus software v2.1 (Applied Biosystems) and were expressed as fold induction relative to control samples using the A ΔCt (2^−ΔΔCt) method with actin as an internal control. The primer/probe set (Applied Biosystems) for TaqMan PCR for mouse Gli-1 was Mm00494645_m1, and for mouse actin was Mm00607939_s1.

Structure (SMILES)	Proliferation (IC50/IC50 Itra) [1]	Glycosylation (2 μM dose) [2]	MB Proliferation (IC50/IC50 Itra) [3]	Gli I Inhibition (IC90 Prolif. dose) [4]	Proliferation (EC50/IC50 Itra) ([1]; footnote g: EC50 of analog relative to IC50 of itraconazole)
O=c1[nH]ncn1-c1ccc(N2CCN(c3ccc(OC[C@H]4CO[C@](Cn5cncn5)(c5ccc(Cl)cc5Cl)O4)cc3)CC2)cc1 [Compound 17a, 4-(4-(4-(4-(((2R,4S)-2-((1H-1,2,4-triazol-1-yl)methyl)-2-(2,4-dichlorophenyl)-1,3-dioxolan-4-yl)methoxy)phenyl)piperazin-1-yl)phenyl)-1H-1,2,4-triazol-5(4H)-one]	2.78	−	0.89	++ (≤0.15)	
CCC1(Cn2ncn(-c3ccc(N4CCN(c5ccc(OCC6COC(Cn7cncn7)(c7ccc(Cl)cc7Cl)O6)cc5)CC4)cc3)c2=O)COC1 [Compound 7v, cis-(2S,4R)-4-[4-[4-[4-[[2-(2,4-Dichlorophenyl)-2-(1H-1,2,4-triazol-1-ylmethyl)-1,3-dioxolan-4-yl]methoxy]phenyl]-lpiperazinyl]phenyl]-2,4-dihydro-2-((3-ethyloxetan-3-yl)methyl)-3H-1,2,4-triazol-3-one]	0.77	++	0.74	+ (0.16 to 0.44)	
CCC(CC)n1ncn(-c2ccc(N3CCN(c4ccc(OCC5COC(Cn6cncn6)(c6ccc(Cl)cc6Cl)O5)cc4)CC3)cc2)c1=O [Compound 7j, cis-(2S,4R)-4-[4-[4-[4-[[2-(2,4-Dichlorophenyl)-2-(1H-1,2,4-triazol-1-ylmethyl)-1,3-dioxolan-4-yl]methoxy]phenyl]-lpiperazinyl]phenyl]-2,4-dihydro-2-(1-ethylpropyl)-3H-1,2,4-triazol-3-one]	1.10	+	0.54	++ (≤0.15)	
O=c1n(-c2ccc(N3CCN(c4ccc(OCC5COC(Cn6cncn6)(c6ccc(Cl)cc6Cl)O5)cc4)CC3)cc2)cnn1CC1CCCC1 [Compound 7l, cis-(2S,4R)-4-[4-[4-[4-[[2-(2/l-Dichlorophenyl)-2-(1H-1,2,4-triazol-1-ylmethyl)-1,3-dioxolan-4-yl]methoxy]phenyl]-lpiperazinyl]phenyl]-2,4-dihydro-2-(1-cyclopentylmethyl)-3H-1,2,4-triazol-3-one]	0.50	++	0.50	+ (0.16 to 0.44)	
CCC#CCCn1ncn(-c2ccc(N3CCN(c4ccc(OCC5COC(Cn6cncn6)(c6ccc(Cl)cc6Cl)O5)cc4)CC3)cc2)c1=O [Compound 7o, cis-(2S,4R)-4-[4-[4-[4-[[2-(2,4-Dichlorophenyl)-2-(1H-1,2,4-triazol-1-ylmethyl)-1,3-dioxolan-4-yl]methoxy]phenyl]-lpiperazinyl]phenyl]-2,4-dihydro-2-(hex-3-ynyl)-3H-1,2,4-triazol-3-one]	1.09	−	1.07	++ (≤0.15)	
CCn1ncn(-c2ccc(N3CCN(c4ccc(OC[C@@H]5CO[C@@](Cn6cncn6)(c6ccc(Cl)cc6Cl)O5)cc4)CC3)cc2)c1=O (relative stereo) [Compound 7b, cis-(2S,4R)-4-[4-[4-[4-[[2-(2,4-Dichlorophenyl)-2-(1H-1,2,4-triazol-1-ylmethyl)-1,3-dioxolan-4-yl]methoxy]phenyl]-lpiperazinyl]phenyl]-2,4-dihydro-2-ethyl-3H-1,2,4-triazol-3-one]	2.94	−	1.62	− (≥0.45)	
CCCC(C)n1ncn(-c2ccc(N3CCN(c4ccc(OC[C@@H]5CO[C@@](Cn6cncn6)(c6ccc(Cl)cc6Cl)O5)cc4)CC3)cc2)c1=O (relative stereo) [Compound 7h, cis-(2S,4R)-4-[4-[4-[4-[[2-(2,4-Dichlorophenyl)-2-(1H-1,2,4-triazol-1-ylmethyl)-1,3-dioxolan-4-yl]methoxy]phenyl]-lpiperazinyl]phenyl]-2,4-dihydro-2-(1-methylbutyl)-3H-1,2,4-triazol-3-one]	0.75	++	0.38	++ (≤0.15)	
CC(C)Cn1ncn(-c2ccc(N3CCN(c4ccc(OC[C@@H]5CO[C@@](Cn6cncn6)(c6ccc(Cl)cc6Cl)O5)cc4)CC3)cc2)c1=O (relative stereo) [Compound 7f, cis-(2S,4R)-4-[4-[4-[4-[[2-(2,4-Dichlorophenyl)-2-(H,2,4-triazol-1-ylmethyl)-1,3-dioxolan-4-yl]methoxy]phenyl]-lpiperazinyl]phenyl]-2,4-dihydro-2-isobutyl-3H-1,2,4-triazol-3-one]	1.32	++	0.86	− (≥0.45)	
CCCCCn1ncn(-c2ccc(N3CCN(c4ccc(OCC5COC(Cn6cncn6)(c6ccc(Cl)cc6Cl)O5)cc4)CC3)cc2)c1=O [Compound 7g, cis-(2S,4R)-4-[4-[4-[4-[[2-(2,4-Dichlorophenyl)-2-(1H-1,2,4-triazol-1-ylmethyl)-1,3-dioxolan-4-yl]methoxy]phenyl]-lpiperazinyl]phenyl]-2,4-dihydro-2-pentyl-3H-1,2,4-triazol-3-one]	1.09	−	0.66	++ (≤0.15)	
CC(C)CCn1ncn(-c2ccc(N3CCN(c4ccc(OC[C@@H]5CO[C@@](Cn6cncn6)(c6ccc(Cl)cc6Cl)O5)cc4)CC3)cc2)c1=O (relative stereo) [Compound 7i, cis-(2S,4R)-4-[4-[4-[4-[[2-(2,4-Dichlorophenyl)-2-(1H-1,2,4-triazol-1-ylmethyl)-1,3-dioxolan-4-yl]methoxy]phenyl]-lpiperazinyl]phenyl]-2,4-dihydro-2-(3-methylbutyl)-3H-1,2,4-triazol-3-one]	1.42	+	0.41	++ (≤0.15)	
CC1(CCCCCCCn2ncn(-c3ccc(N4CCN(c5ccc(OCC6COC(Cn7cncn7)(c7ccc(Cl)cc7Cl)O6)cc5)CC4)cc3)c2=O)N=N1 [Compound 7x, cis-(2S,4R)-4-[4-[4-[4-[[2-(2,4-Dichlorophenyl)-2-(1H-1,2,4-triazol-1-ylmethyl)-1,3-dioxolan-4-yl]methoxy]phenyl]-lpiperazinyl]phenyl]-2,4-dihydro-2-(7-(3-methyl-3H-diazirin-3-yl)heptyl)-3H-1,2,4-triazol-3-one]		−	1.18	− (≥0.45)	1.1^g
